Values quoted from earlier work, collected in patent publication US20130310903A1, “Anti-Depression Light-Wave Device and Usage Thereof” (priority 2012, published 2013).
Like-named read-outs stand apart in the source and are kept apart here.

Conditions: 12-week administration; for CGI outcome Worse: share of patients

SMILES: Fc1ccc([C@@H]2CCNC[C@H]2COc2ccc3c(c2)OCO3)cc1 [Paxil, Paroxetine]
- CGI outcome Minimally (20 mg): 33%
- CGI outcome Much Improved (20 mg): 18%
- CGI outcome No Change (20 mg): 35%
- CGI outcome Very Much (20 mg): 7%
- CGI outcome Worse (20 mg): 7%
- CGI outcome Minimally (40 mg): 29%
- CGI outcome Much Improved (40 mg): 22%
- CGI outcome No Change (40 mg): 22%
- CGI outcome Very Much (40 mg): 20%
- CGI outcome Worse (40 mg): 7%
- CGI outcome Minimally (60 mg): 34%
- CGI outcome Much Improved (60 mg): 24%
- CGI outcome No Change (60 mg): 19%
- CGI outcome Very Much (60 mg): 20%
- CGI outcome Worse (60 mg): 3%
